Molecular target: T1, Na+-dependent bile acid transportation system (intestinal bile acid transportation system in the terminal small intestine) (Oryctolagus cuniculus, UniProt Q28727)
T1 construct: from tissue; host or cells: brush border membrane vesicles from the terminal 7/10 of the small intestine (ileum) of male New Zealand rabbits
T1 sequence (Q28727 1-347): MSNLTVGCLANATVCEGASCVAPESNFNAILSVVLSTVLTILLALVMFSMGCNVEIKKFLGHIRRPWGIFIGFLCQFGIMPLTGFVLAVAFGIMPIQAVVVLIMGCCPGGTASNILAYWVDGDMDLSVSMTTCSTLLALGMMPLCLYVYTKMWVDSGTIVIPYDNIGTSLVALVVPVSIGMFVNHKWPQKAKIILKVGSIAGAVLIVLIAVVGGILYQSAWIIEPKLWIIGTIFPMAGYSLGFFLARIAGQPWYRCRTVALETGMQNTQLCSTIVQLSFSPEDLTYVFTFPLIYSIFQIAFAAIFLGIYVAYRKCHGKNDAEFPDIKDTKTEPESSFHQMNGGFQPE
Experiment: Inhibition of Na+-dependent [3H]-taurocholate uptake in brush border membrane vesicles of the ileum of rabbits
Assay type: biochemical
Conditions: quotient of IC50Na of reference taurochenedeoxycholate (TCDC) and IC50Na of test substance; rabbit ileum brush border membrane vesicles; 50 μM taurocholate
Experimental: Biological testing of the compounds of the present invention was carried out by determining the inhibition of [^3 H]-taurocholate uptake in brush border membrane vesicles of the ileum of rabbits. The inhibition test was carried out as follows:
1. Preparation of brush border membrane vesicles from the ileum of rabbits
Preparation of brush border membrane vesicles from the intestinal cells of the small intestine was carried out by the so-called Mg^2+ precipitation method. Male New Zealand rabbits (2 to 2.5 kg of body weight) were sacrificed by intravenous injection of 0.5 ml of T61®, an aqueous solution of 2.5 mg of tetracaine HCl, 100 mg of embutramide and 25 mg of mebezonium iodide. The small intestine was removed and rinsed with ice-cold physiological saline solution. The terminal 7/10 of the small intestine (measured in the oral-rectal direction, i.e., the terminal ileum, which contains the active Na^+ -dependent bile acid transportation system) was used for preparation of the brush border membrane vesicles. The intestines were frozen at -80° C. in plastic bags under nitrogen.
For preparation of the membrane vesicles, the frozen intestines were thawed at 30° C. in a water-bath. The mucosa was scraped off and suspended in 60 ml of ice-cold 12 mM TRIS/HCl buffer (pH 7.1)/300 mM mannitol, 5 mM EGTA/10 mg/l of phenylmethylsulfonyl fluoride/1 mg/l of trypsin inhibitor from soybeans (32 U/mg)/0.5 mg/l of trypsin inhibitor from the bovine lung (193 U/mg)/5 mg/l of bacitracin. After dilution to 300 ml with ice-cold distilled water, the mixture was homogenized with an Ultraturrax (18-rod, IKA Werk Staufen, Germany) at 75% of the maximum for 3 minutes, while cooling with ice. After addition of 3 ml of 1 M MgCl2 solution (final concentration 10 mM), the mixture was left to stand at 0° C. for exactly 1 minute. By addition of Mg^2+, the cell membranes aggregated, and precipitated with the exception of the brush border membranes. After centrifugation at 3000× g (5000 rpm, SS-34 rotor) for 15 minutes, the precipitate was discarded and the supernatant, which contained the brush border membrane, was centrifuged at 48,000× g (20,000 rpm, SS-34 rotor) for 30 minutes. The supernatant was discarded and the precipitate was rehomogenized in 60 ml of 12 mM TRIS/HCl buffer (pH 7.1)/60 mM mannitol, 5 mM EGTA with a Potter Elvejhem homogenizer (Braun, Melsungen, 900 rpm, 10 strokes). After addition of 0.1 ml of 1 M MgCl2 solution and an incubation time of 15 minutes at 0° C., the mixture was centrifuged again at 3000× g for 15 minutes. The supernatant was then centrifuged again at 48,000× g (20,000 rpm, SS-34 rotor) for 30 minutes. The precipitate was taken up in 30 ml of 10 mM TRIS/HEPES buffer (pH 7.4)/300 mM mannitol and resuspended homogeneously by 20 strokes in a Potter Elvejhem homogenizer at 1000 rpm. After centrifugation at 48,000× g (20,000 rpm, SS-34 rotor) for 30 minutes, the precipitate was taken up in 0.5 to 2 ml of TRIS/HEPES buffer (pH 7.4)/280 mM mannitol (final concentration 20 mg/ml) and resuspended with the aid of a tuberculin syringe with a 27-gauge needle. The vesicles were either used directly for transportation studies after the preparation or stored at -196° C. in 4 mg portions in liquid nitrogen.
2. Inhibition of the Na^+ -dependent [^3 H]taurocholate uptake in brush border membrane vesicles of the ileum
The uptake of substrates in the brush border membrane vesicles described above was determined by means of the so-called membrane filtration technique. 10 μl of the vesicle suspension (100 μg of protein) were pipetted as drops onto the wall of a polystyrene incubation tube (11×70 mm), which contained the incubation medium with the corresponding ligands (90 μl). […]

| Compound | IC5ONa -TCDC (μmol)/ IC50Na -compound (μmol) |
| --- | --- |
| COC(=O)CCC(C)C1CCC2C3C(O)CC4CC(NC(=O)CCC(=O)NCCCCC(N)C(=O)Nc5ccccc5C(Nc5ccccn5)C(c5ccccn5)C(O)c5ccccc5)CCC4(C)C3CC(O)C12C (centres unmarked) [Example 9] | 2.02 |
| CC(CCC(=O)NCC(=O)O)C1CCC2C3C(O)CC4CC(NC(=O)CCC(=O)NC(CCCCNC(=O)OC(C)(C)C)C(=O)Nc5ccccc5C(Nc5ccccn5)C(c5ccccn5)C(O)c5ccccc5)CCC4(C)C3CC(O)C12C (centres unmarked) [Example 14] | 1.52 |
| CC(CCC(=O)O)C1CCC2C3C(O)CC4CC(NC(=O)CCC(=O)NCCCCC(N)C(=O)Nc5ccccc5C(Nc5ccccn5)C(c5ccccn5)C(O)c5ccccc5)CCC4(C)C3CC(O)C12C (centres unmarked) [Example 10] | 1.63 |
| CC(CCC(=O)NCCS(=O)(=O)O)C1CCC2C3C(O)CC4CC(NC(=O)CCC(=O)NC(CCCCNC(=O)OC(C)(C)C)C(=O)Nc5ccccc5C(Nc5ccccn5)C(c5ccccn5)C(O)c5ccccc5)CCC4(C)C3CC(O)C12C (centres unmarked) [Example 1k] | 1.59 |
| CC(CCC(=O)O)C1CCC2C3C(O)CC4CC(NC(=O)CCC(=O)NC(CCCCNC(=O)OC(C)(C)C)C(=O)Nc5ccccc5C(Nc5ccccn5)C(c5ccccn5)C(O)c5ccccc5)CCC4(C)C3CC(O)C12C (centres unmarked) [Example 1j] | 1.51 |
| C[C@H](CCC(=O)Nc1ccccc1[C@@H](Nc1ccccn1)[C@H](c1ccccn1)[C@H](O)c1ccccc1)[C@H]1CC[C@H]2[C@@H]3[C@H](O)C[C@@H]4C[C@H](O)CC[C@]4(C)[C@H]3C[C@H](O)[C@]12C [Example 4] | 0.50 |
| CC(CCC(=O)O)C1CC[C@H]2[C@@H]3[C@H](O)C[C@@H]4C[C@@H](NC(=O)CCC(=O)Nc5ccccc5C(Nc5ccccn5)C(c5ccccn5)C(O)c5ccccc5)CC[C@]4(C)[C@H]3C[C@H](O)[C@]12C (some centres unmarked) [Example 8] | 0.91 |
| COC(=O)CCC(C)C1CCC2C3C(O)CC4CC(NC(=O)CCC(=O)NC(Cc5ccccc5)C(=O)N5CCCC5C(=O)Nc5ccccc5C(Nc5ccccn5)C(c5ccccn5)C(O)c5ccccc5)CCC4(C)C3CC(O)C12C (centres unmarked) [Example 2d] | 0.56 |
| CC(CCC(=O)O)C1CCC2C3C(O)CC4CC(NC(=O)CCC(=O)NC(CCCCNC(=O)OC(C)(C)C)C(=O)Nc5ccccc5C(Nc5ccccn5)C(c5ccccn5)C(O)c5ccccc5)CCC4(C)C3CC(O)C12C (centres unmarked) [Example 12] | 2.58 |
| CC(CCC(=O)O)C1CCC2C3C(O)CC4CC(NC(=O)CCC(=O)NC(Cc5ccccc5)C(=O)N5CCCC5C(=O)Nc5ccccc5C(Nc5ccccn5)C(c5ccccn5)C(O)c5ccccc5)CCC4(C)C3CC(O)C12C (centres unmarked) [Example 2e] | 1.96 |
| C[C@H](CCC(=O)O)[C@H]1CC[C@H]2[C@@H]3[C@H](O)C[C@@H]4C[C@@H](NC(=O)CCC(=O)Nc5ccc(C(Nc6ccccn6)C(c6ccccn6)C(O)c6ccccc6)cc5)CC[C@]4(C)[C@H]3C[C@H](O)[C@]12C (some centres unmarked) [Example 7] | 0.15 |

From patent publication US6180618A, “Propanolamine derivatives linked to bile acids, processes for their preparation, pharmaceuticals comprising these compounds, and their use” (Aventis Pharma Deutschland GmbH, priority 1998, dated 2001)
